Source: patent US9822099B2, “Triazole derivatives” (priority 2013, dated 2017)
Read-outs that look alike come from different tables or passages of the source. Marks after values point to notes of the source that are not given here.

Columns and labels:
[1] = test system: Botrytis cinerea; experiment: Example A: in vivo preventive test on Botrytis cinerea (grey mould); conditions: 500 ppm of active ingredient; gherkin plants, preventive spray; evaluated 4 to 5 days after inoculation
Experimental: (§1) The young plants of gherkin are treated by spraying the active ingredient prepared as described above. Control plants are treated only with an aqueous solution of acetone/Dimethyl sulfoxide/Tween®. After 24 hours, the plants are contaminated by spraying the leaves with an aqueous suspension of Botrytis cinerea spores.

[2] = test system: Puccinia recondita; experiment: Example B: in vivo preventive test on Puccinia recondita (brown rust on wheat); conditions: 500 ppm of active ingredient; wheat plants, preventive spray; evaluated 11 days after inoculation
Experimental: as §1, with “wheat” for “gherkin”, “Puccinia recondita” for “Botrytis cinerea”

[3] = test system: Pyrenophora teres; experiment: Example C: in vivo preventive test on Pyrenophora teres (net blotch on barley); conditions: barley plants, preventive spray, evaluated 14 days after inoculation
Experimental: as §1, with “barley” for “gherkin”, “Pyrenophora teres” for “Botrytis cinerea”

[4] = test system: Septoria tritici; experiment: Example D: in vivo preventive test on Septoria tritici (leaf spot on wheat); conditions: 500 ppm of active ingredient; wheat plants, preventive spray; evaluated 24 days after inoculation
Experimental: as §1, with “wheat” for “gherkin”, “Septoria tritici” for “Botrytis cinerea”

[5] = test system: Sphaerotheca fuliginea; experiment: Example E: in vivo preventive test on Sphaerotheca fuliginea (powdery mildew on cucurbits); conditions: 500 ppm of active ingredient; gherkin plants, preventive spray; evaluated 15 days after inoculation
Experimental: as §1, with “Sphaerotheca fuliginea” for “Botrytis cinerea”

[6] = test system: Uromyces appendiculatus; experiment: Example F: in vivo preventive test on Uromyces appendiculatus (bean rust); conditions: bean plants, preventive spray, evaluated 11 days after inoculation
Experimental: as §1, with “bean” for “gherkin”, “Uromyces appendiculatus” for “Botrytis cinerea”

[7] = test system: Blumeria graminis f. sp. hordei; experiment: Example G: Blumeria test (barley)/preventive; assay type: in vivo; conditions: 500 ppm of active ingredient, preventive, evaluated 7 days after inoculation
Experimental: (§2) Solvent: 49 parts by weight of N,N-dimethylacetamide Emulsifier: 1 part by weight of alkylaryl polyglycol ether To produce a suitable preparation of active compound, 1 part by weight of active compound or active compound combination is mixed with the stated amounts of solvent and emulsifier, and the concentrate is diluted with water to the desired concentration. To test for preventive activity, young plants are sprayed with the preparation of active compound or active compound combination at the stated rate of application. After the spray coating has been dried, the plants are dusted with spores of Blumeria graminis f. sp. hordei.

[8] = test system: Fusarium nivale (var. majus); experiment: Example J: Fusarium nivale (var. majus)-test (wheat)/preventive; assay type: in vivo; conditions: 500 ppm of active ingredient, preventive, evaluated 5 days after inoculation
Experimental: Solvent: 49 parts by weight of N,N-dimethylacetamide
Emulsifier: 1 part by weight of alkylaryl polyglycol ether
To produce a suitable preparation of active compound, 1 part by weight of active compound or active compound combination is mixed with the stated amounts of solvent and emulsifier, and the concentrate is diluted with water to the desired concentration.
To test for preventive activity, young plants are sprayed with the preparation of active compound or active compound combination at the stated rate of application.
After the spray coating has been dried, the plants are slightly injured by using a sandblast and afterwards they are sprayed with a conidia suspension of Fusarium nivale (var. majus).
The plants are placed in the greenhouse under a translucent incubation cabinet at a temperature of approximately 10° C. and a relative atmospheric humidity of approximately 100%.
The test is evaluated 5 days after the inoculation. 0% means an efficacy which corresponds to that of the untreated control, while an efficacy of 100% means that no disease is observed.

[9] = test system: Leptosphaeria nodorum; experiment: Example K: Leptosphaeria nodorum test (wheat)/preventive; assay type: in vivo; conditions: 500 ppm of active ingredient, preventive, evaluated 8 days after inoculation
Experimental: as §2, with “sprayed” for “dusted”, “a spore suspension” for “spores”, “Leptosphaeria nodorum.” for “Blumeria graminis f. sp. hordei.”

[10] = test system: Fusarium graminearum; assay type: in vivo; conditions: 500 ppm of active ingredient; barley, preventive; evaluated 5 days after inoculation
[11] = test system: Pyricularia oryzae; assay type: in vivo; conditions: 500 ppm of active ingredient; rice, preventive; evaluated 8 days after inoculation

SMILES | Eff. % [1] [%] | Eff. % [2] [%] | Eff. % ([3]; 500 ppm of active ingredient) [%] | Eff. % [4] [%] | Eff. % [5] [%] | Eff. % ([6]; 500 ppm of active ingredient) [%] | LogP (pH 2.7) | Eff. % [7] [%] | Eff. % [8] [%] | Eff. % [9] [%] | Eff. % [10] [%] | Eff. % [11] [%] | LogP (pH 7.8) | Eff. % ([3]; 100 ppm of active ingredient) [%] | Eff. % ([6]; 100 ppm of active ingredient) [%]
OC(Cc1ccc(Cl)cn1)(Cn1cncn1)C1(Cl)CC1 (racemic) [Example I-67] | 99 | 98 | 86 | 100 | 98 | 100 | 2.23^[a] |  |  |  |  |  |  |  | 
OC(CCc1ccccc1Cl)(Cc1ccncc1Cl)Cn1cncn1 (racemic) [Example I-68] |  | 94 | 71 | 100 | 100 | 100 | 2.29^[a] |  |  |  |  |  |  |  | 
CC(C)(Oc1ccc(Cl)cc1)C(O)(Cc1ccncc1Cl)Cn1cncn1 (racemic) [Example I-70] |  | 94 |  | 100 | 100 | 99 | 2.84^[a] | 100 | 88 | 89 |  |  |  |  | 
OC(Cc1nccnc1Br)(Cn1cncn1)C1(Cl)CC1 (racemic) [Example I-71] | 100 | 94 | 79 | 100 | 100 | 99 | 1.96^[a] | 100 | 94 |  | 100 | 80 |  |  | 
OC(COc1ccc(F)cc1)(Cc1ccncc1Cl)Cn1cncn1 (racemic) [Example I-79] | 99 | 98 |  | 100 | 100 | 100 | 1.86^[a] |  |  |  |  |  |  |  | 
OC(Cc1cc(Cl)cnc1Cl)(Cn1cncn1)C1(Cl)CC1 (racemic) [Example I-83] | 100 | 100 | 88 | 100 | 100 | 100 | 2.53^[a] |  |  |  |  |  |  |  | 
OC(Cc1cc(F)ncc1Cl)(Cn1cncn1)C1(Cl)CC1 (racemic) [Example I-89] | 100 | 100 | 100 | 100 | 100 | 100 | 2.30^[a] |  |  |  |  |  |  |  | 
CC(C)(CCl)C(O)(Cc1ccncc1Cl)Cn1cncn1 (racemic) [Example I-90] | 100 |  |  | 78 | 100 |  | 1.76^[a] |  |  |  |  |  | 1.96^[b]; |  | 
CC(C)(Oc1ccc(F)cc1)C(O)(Cc1ccncc1Cl)Cn1cncn1 (racemic) [Example I-91] | 95 | 89 |  | 100 | 98 | 97 | 2.48^[a] |  |  |  |  |  | 2.60^[b]; |  | 
OC(Cc1cccnc1Cl)(Cn1cncn1)C1(Cl)CC1 (single isomer, unassigned) [Example I-94] |  |  |  |  |  |  | 1.81^[a] | 100 | 100 | 71 |  | 70 | 1.79^[b]; |  | 
OC(Cc1ccc2ccccc2n1)(Cn1cncn1)C1(Cl)CC1 (stereo not shown) [Example I-1] |  |  |  |  |  |  | 1.64^[a] |  |  |  |  |  |  | 83 | 80
